Source: patent publication US5300639A, “Thiazolo [5,4-b]azepine compounds” (Takeda Chemical Industries, Ltd., priority 1992, dated 1994)
Where a name gives a salt, the structure may show the parent alone.

Legend:
[1] = test system: lipoperoxide formation in rat's brain homogenate; assay: Inhibitory action for lipoperoxide formation in rat's brain homogenate (thiobarbituric acid method); assay type: biochemical; details: read-out: IC50 (M) × 10^-7
Procedure: According to the method by Suno et al. (Japan J. Pharmacol., 35, 196(1984) , the concentration of the compound necessary for 50% inhibition of lipoperoxide formation in rat's brain homogenate was determined by examining the lipoperoxide formation using the thiobarbituric acid method. The results obtained are shown in Table 3.

[2] = target: T1, Leukotriene D4 (LTD4) receptor (Cavia porcellus, UniProt Q2NNR5); assay: Leukotriene D4 (LTD4) receptor antagonism ([3H]LTD4, guinea pigs' lung membrane fraction); assay type: binding, guinea pig; details: read-out: Inhibition rate (%) LTD4 receptor; for inhibition at 1 µM: 10^-6 M; for inhibition at 0.1 µM: 10^-7 M; for inhibition at 0.01 µM: 10^-8 M
T1 construct: guinea pigs' lung membrane fraction; from tissue; host or cells: guinea pig lung membrane fraction
T1 sequence (Q2NNR5 1-340): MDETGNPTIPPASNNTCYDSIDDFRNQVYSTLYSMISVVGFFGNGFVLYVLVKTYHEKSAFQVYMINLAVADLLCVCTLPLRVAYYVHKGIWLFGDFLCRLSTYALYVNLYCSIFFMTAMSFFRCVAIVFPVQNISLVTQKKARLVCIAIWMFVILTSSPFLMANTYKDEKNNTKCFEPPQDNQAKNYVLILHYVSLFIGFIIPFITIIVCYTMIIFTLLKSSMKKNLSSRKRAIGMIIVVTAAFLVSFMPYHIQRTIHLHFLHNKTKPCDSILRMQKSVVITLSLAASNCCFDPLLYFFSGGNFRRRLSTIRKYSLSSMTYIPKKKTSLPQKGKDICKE
Procedure: According to the method by S. S. Pong , and R. N. DeHaven (Proceedings of the National Academy of Sciences of the United States of America, 80, 7415-7419 (1983) , the leukotriene D4 (LTD4) receptor antagonism was measured by using [^3 H]LTD4 and guinea pigs' lung membrane fraction. The results are shown in Table 5.

[3] = test system: Behavior change due to the spinal intrathecal injection of ferrous chloride in mice; assay: Behavior change due to spinal intrathecal injection of ferrous chloride in mice; assay type: in vivo, Slc:ICR mouse; details: 100 mg/kg p.o., 30 min before i.t. ferrous chloride; for Average score, 100 mg/kg dose: scale 0 (normal) to 5 (death); for Inhibition rate (%): vs saline
Procedure: In male Slc : ICR mouse of 5 weeks age 10 mice per group were used. […] The evaluation point of behavior change was scored according to the following criterion.
The inhibition rate was shown based on the evaluation point under the above criterion. The test compound was orally administered 30 minutes before the i.t. injection of ferrous chloride.

[4] = test system: formation of HHT (12-hydroxyheptadeca-5,8,10-trienoic acid) in rat's platelet; assay: Inhibitory action for the formation of HHT in rat's platelet; assay type: cell-based; details: rat platelet rich plasma, read-out: Inhibition rate (%) of HHT formation
Procedure: Eight ml of blood was gathered from the abdominal aorta of a rat (JcI : Wistar, male, 12-15 weeks age) subjected to abdominal incision under anesthesia by the use of 3.2 % sodium citrate (1 volume of sodium citrate solution to 9 volume of whole blood). The blood was centrifuged at 800 rpm for 10 minutes at room temperature to gather PRP (platelet rich plasma), and the residual blood was further centrifuged at 3000 rpm for 10 minutes to gather PPP (platelet poor plasma). The platelet number in PRP was measured and the PRP was adjusted by diluting with PPP so that the concentration of platelet was one million/μl. To 0.25 ml of the PRP, 125 μg of arachidonic acid and the test compound (the final concentration of 100 μM, 10 μM, 1 μM and 0.1 μM) were added, and the mixture was incubated at 37° C. for 15 minutes. After the reaction, 1.1 ml of ethanol was added, well shaken and centrifuged at 2000 rpm for 10 minutes to separate the supernatant. To 1 ml of the supernatant 1 ml of water was added and subjected to high performance liquid chromatography to determine HHT. The absorption at 240 nm due to HHT was measured by an ultraviolet absorption monitor. […]

5-lipoxygenase = target: T2, 5-lipoxygenase (Rattus norvegicus, UniProt P12527); assay: Inhibitory action on 5-lipoxygenase (5-HETE formation in RBL-1 cells); assay type: cell-based; details: read-out: Inhibition rate (%) of 5-HETE formation
T2 construct: endogenous in cells; host or cells: RBL-1 (rat basophilic leukemia cells)
T2 sequence (P12527 1-673): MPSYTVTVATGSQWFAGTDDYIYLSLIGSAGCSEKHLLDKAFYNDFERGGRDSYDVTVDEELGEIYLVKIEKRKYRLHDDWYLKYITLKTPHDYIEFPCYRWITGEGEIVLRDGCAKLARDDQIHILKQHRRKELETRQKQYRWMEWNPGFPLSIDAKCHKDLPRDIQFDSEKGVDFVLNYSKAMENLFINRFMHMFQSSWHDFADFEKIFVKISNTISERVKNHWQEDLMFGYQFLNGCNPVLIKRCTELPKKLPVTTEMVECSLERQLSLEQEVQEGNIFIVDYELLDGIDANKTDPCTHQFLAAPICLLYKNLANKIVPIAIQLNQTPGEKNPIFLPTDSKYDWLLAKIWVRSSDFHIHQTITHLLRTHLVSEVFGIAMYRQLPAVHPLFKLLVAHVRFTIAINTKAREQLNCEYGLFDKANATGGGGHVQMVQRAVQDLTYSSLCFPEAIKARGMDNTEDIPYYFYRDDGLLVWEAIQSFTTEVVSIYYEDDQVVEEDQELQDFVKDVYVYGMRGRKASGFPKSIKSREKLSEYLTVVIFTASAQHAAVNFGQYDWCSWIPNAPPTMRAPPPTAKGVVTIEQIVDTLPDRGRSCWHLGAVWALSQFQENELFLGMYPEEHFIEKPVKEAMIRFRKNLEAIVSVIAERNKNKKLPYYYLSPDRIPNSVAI
Procedure: RBL-1 cells (rat basophilic leukemia cells) of 10^7 were suspended in 0.9 ml of MCM (mast cell medium). […] The mixture was incubated at 37° C. for 5 minutes. Then, 0.1 ml of MCM containing 50 μg of arachidonic acid and 10 μg of calcium ionophore A-23187 was added and further the mixture was incubated at 37° C. for 15 minutes. After the reaction, 1 ml of ethanol was added, well shaken and subjected to high performance liquid chromatography to determine 5-HETE. The absorption at 240 nm due to 5-HETE was measured by an ultraviolet abosorption monitor. The inhibition rate of 5-HETE formation is represented by (1-b/a)×100, wherein a is the peak height or area in the absence of the compound (I) and b is that in the presence of the compound (I).

[5] = test system: Cerebral blood flow after complete cerebral ischemia-reperfusion in dogs; assay: Effect on cerebral blood flow and cortical water content after complete cerebral ischemia-reperfusion in dogs; assay type: in vivo, dog (adult mongrel); details: for Decrease rate of γ-CBF 3 hours after reperfusion: control 44.3±1.4%
Procedure: Fourteen adult mongrel dogs were anesthetized with a combination of α-chloralose and urethane. Polyethylene catheters were introduced into the femoral artery and vein. Systemic blood pressure was measured through the cannulated femoral artery with an electromanometer. Heart rate was recorded with a cardiotachometer. The regional cerebral blood flow (γ-CBF) was measured using a thermal diffusion flow probe incorporating a Peltier stack. The animals were subjected to positive-pressure ventilation with room-air. A thoracotomy was performed in the third right intercostal space. […] Occlusion was maintained for 10 minutes. After reperfusion, all physiological variables were continuously recorded for 3 hours. After 3 hours of reperfusion, animals were sacrificed. The regional cerebral cortex was removed, weighed and then dried (48 hours at 120° C.) to remove water content. The test drugs were given intravenously 5 minutes before ischemia.

| Compound | IC50 [1] [M] | inhibition at 1 µM [2] [%] | inhibition at 0.1 µM [2] [%] | inhibition at 0.01 µM [2] [%] | Average score, 100 mg/kg dose [3] | Inhibition rate (%) [3] [%] | also measured |
| --- | --- | --- | --- | --- | --- | --- | --- |
| Cc1ccc(C=Cc2nc3c(s2)NCCCC3)cc1 [Example 6, 2-(4-Methylstyryl)-5,6,7,8-tetrahydro-4H-thiazolo[5,4-b]-azepine] | 7e-07 | 100 | 94.3 | 64.4 | – | – | – |
| CC(C)c1ccc(C=Cc2nc3c(s2)NCCCC3)cc1 [Example 8, 2-(4-Isopropylstyryl)-5,6,7,8-tetrahydro-4H-thiazolo[5,4-b]azepine] | 7e-07 | 94.6 | 92.4 | 54.8 | – | – | – |
| C(=Cc1nc2c(s1)NCCCC2)c1ccccc1.O=C(O)C(=O)O [Example 28, 2-Styryl-5,6,7,8-tetrahydro-4H-thiazolo[5,4-b]azepine oxalate] | 7e-07 | – | – | – | 1.1 | 76.6 | inhibition at 1 µM (5-lipoxygenase; 10^-6 M): 95%; inhibition at 0.1 µM (5-lipoxygenase; 10^-7 M): 56%; inhibition at 0.01 µM (5-lipoxygenase; 10^-8 M): 9% |
| Cc1ccc(-c2nc3c(s2)NCCCC3)cc1N [Example 106, 2-(3-Amino-4-methylphenyl)-5,6,7,8-tetrahydro-4H-thiazolo-[5,4-b]azepine dihydrochloride] | – | – | – | – | – | – | Effect on decrease in γ-CBF ([5]; 1 mg/kg, i.v., 3 hours after reperfusion): significantly inhibited a decrease in γ-CBF 3 hours after reperfusion; Water Content (%) of cerebral cortex ([5]; 1 mg/kg, i.v., 3 hours after reperfusion, control 79.81 ± 0.21): 78.22 ± 0.08%; Decrease rate of γ-CBF 3 hours after reperfusion ([5]; 1 mg/kg, i.v.): 18.0±3.1%; Effect on post-ischemia hypoperfusion in γ-CBF ([5]; 10 mg/kg, i.v.): almost completely inhibited the post-ischemia hypoperfusion in γ-CBF; Decrease rate of γ-CBF 3 hours after reperfusion ([5]; 10 mg/kg, i.v.): 6.5±2.5%; Effect on increase in water content in the cerebral cortex ([5]; 3 hours after reperfusion): significantly inhibited the increase in water content in the cerebral cortex 3 hours after reperfusion; Time after reperfusion at which γ-CBF recovered to the pre-occlusion level ([5]; i.v., 5 minutes before ischemia): 30 min; γ-CBF immediately after reperfusion ([5]; i.v., 5 minutes before ischemia, vs control group): transiently increased, with reactive hyperemia to the same extent as that of the control group |

Further lines, with some results ahead:

| IC50 [1] [M] | inhibition at 1 µM [2] [%] | inhibition at 0.1 µM [2] [%] | inhibition at 0.01 µM [2] [%] | Compound | Average score, 100 mg/kg dose [3] | Inhibition rate (%) [3] [%] | also measured |
| --- | --- | --- | --- | --- | --- | --- | --- |
| 7e-07 | – | – | – | C(C=Cc1nc2c(s1)NCCCC2)=Cc1ccccc1 [Example 21, 2-(4-Phenylbutadienyl)-5,6,7,8-tetrahydro-4H-thiazolo[5,4-b]azepine] | 1.7 | 63.0 | – |
| 1.2e-06 | – | – | – | c1ccc(-c2nc3c(s2)NCCCC3)cc1 [Example 26, 2-Phenyl-5,6,7,8-tetrahydro-4H-thiazolo[5,4-b]azepine] | – | – | inhibition at 100 µM ([4]; 10^-4 M): 100%; inhibition at 10 µM ([4]; 10^-5 M): 63%; inhibition at 1 µM ([4]; 10^-6 M): 22% |
